Experimental findings from patent publication EP0192317A1, “Homocarnosine or acylhomocarnosine salts” (HAMARI YAKUHIN KOGYO KABUSHIKI KAISHA also known as HAMARI …, priority 1985, dated 1986) are described below.

Data set [1] deals with Water-immersion stress ulcer. The data set is described as follows: Water-immersion stress ulcer. In kind it is in vivo, Male JCI-SD strain rats. The following applies: for Ulcer Index (mm): 400 mg/kg orally 30 minutes before 7 hours immersion in 23°C water, sum of the lengths of the lesions in the body of the stomach; for Inhibition (%): 400 mg/kg orally, inhibition of water-immersion stress ulcer versus No drug. How it is done:
After a fasting period of 24 hours, 400 mg/kg of each test compound was orally administered to each animal, and after 30 minutes, the animal was immobilized in a stress cage and was immersed in 23°C water down to the level of the thorax for 7 hours. After this stress loading, the rats was exsanguinated by decapitation and the stomach was excised and fixed in 1% formalin for 15 minutes. Then, an incision was made from the pyrolus along the greater curvature and the lengths of the lesions formed in the body of the stomach were measured using a dissecting microscope (with a scale graduated in 1/100 cm). The sum of the lengths was used as the ulcer index.

The subject of data set [2] is Pyrolic ligation-induced ulcer. The data set can be described thus: Pyrolic ligation-induced ulcer (Shay method). The class given is in vivo, Male Wistar strains rats. The settings on record: for Inhibition (%): 300 mg/kg intraduodenally immediately after ligation, ulcer in the fore-stomach 13 hours after administration. How it is done: (b) Pyrolic ligation-induced ulcer
Male Wistar strains rats weighing about 300 g were deprived of food for 20 hours, with provision against fecal feeding, and used in groups of 8 animals. The pyrolus of each animal was ligated under ether anesthesia according to the method described by Shay et al. [H.G. Shay, S.A. Komarow, S.S. Felds, D. Meranze, M. Gruenstein, and H. Siplet, Gastroenterology, 5, 43 (1945)], and 300 mg/kg of each test compound was immediately administered intraduodenally. The incision was sutured and 13 hours after drug administration the rat was sacrified by cervical dislocation. The stomach was excised, slightly inflated by an injection of 1% formalin solution, immersed in the same solution for 15 minutes to fix the gastric wall, and then opened along the greater curvature. The ulcer in the fore-stomach was measured under a dissecting microscope .to calculate the ulcer index and the efficacy of the drug was expressed in terms of percent ulcer index.

In data set [3] the test system is wound. The data set is described as follows: Wound healing-promoting activity (tension required for separating the back skin wound). The class given is in vivo, Male rats. The settings on record: for Tension: 10 g in 20 ml of peanut oil, 0.05 ml per dose once daily for 10 consecutive days, tension required for separating the wound. How it is done: 2. Wound healing-promoting activity (Method)
Male rats weighing about 180 g-were used in groups of 9 animals. The hair on the back of each rat was clipped with an electric clipper and under ether anesthesia, a wound (20 mm long) was made with a chisel having a 20 mm edge in two positions of the cropped back. A suspension of each test compound (10 g) in 20 ml of peanut oil was applied to the wound in a volume of 0.05 ml per dose once daily for 10 consecutive days. After 10 days, the animal was bled to death by decapitation and the skin of the back was peeled until the wound was separated. The tension (grams) required for separating the wound was measured as an indicator of drug efficacy.

Data set [4] has as its system Wistar strain rats. The data set can be described thus: Acute toxicity study. The class given is in vivo. The following applies: orally 5 g/kg, observed for 7 days, rats of either sex. The text has this:
Wistar strain rats of either sex weighing 150 to 200 g were used in groups of 7 animals.

On to “N-acetyl-L-homocarnosine zinc salt [N-Acetyl-L-Homocarnosine Zn]”, for which, in data set [1], the “Ulcer Index (mm)” value is 7.06 mm and the “Inhibition (%)” value turned out to be 31.0%. In data set [2], the “Inhibition (%)” value is given as 22.1%. In addition, the “Tension” value in data set [3] is on record as 233.64 g.

Take “L-homocarnosine aluminum salt [(Homocarnosine)3 Al]”: in data set [1], the “Ulcer Index (mm)” value amounted to 8.24 mm and the “Inhibition (%)” value stood at 19.5%.

“Basic aluminum sucrose sulfate [reference compound]”: in data set [1], the “Ulcer Index (mm)” value is reported as 8.54 mm. The “Inhibition (%)” value is on record as 16.6% in data set [1] and 4.7% in data set [2].

Take `CN/C(=N/CCSCc1nc[nH]c1C)NC#N` [Cimetidine, reference compound]: in data set [1], the “Ulcer Index (mm)” value was 4.02 mm and the “Inhibition (%)” value came to 60.7%.

With “L-homocarnosine zinc salt [Homocarnosine Zn]”, in data set [1], the “Ulcer Index (mm)” value amounted to 3.85 mm and the “Inhibition (%)” value is listed as 62.4%. Moreover, the “Inhibition (%)” value in data set [2] was 46.2%. In data set [2] (summary of Tables I and II), the “antiulcer potency among the compounds tested (in words)” value is recorded as “the most potent”. Further, the “Tension” value in data set [3] is 249.36 g. Moreover, in data set [3] (summary of Table III), the “wound healing-promoting effect (in words)” value is reported as “particularly excellent”.

As to `CC(=O)NCCCC(=O)N[C@@H](Cc1cnc[nH]1)C(=O)O` [N-Acetyl-L-Homocarnosine, N-acetyl-L-homocarnosine, reference compound], in data set [1], the “Ulcer Index (mm)” value is recorded as 9.95 mm and the “Inhibition (%)” value is 6.7%. Besides, the death entry in data set [4] is listed as “No death”. Also, the “Inhibition (%)” value in data set [2] is reported as 2.4%. Moreover, the “Tension” value in data set [3] turned out to be 207.45 g.

Consider Carnosine Zn [reference compound], for which, in data set [1], the “Ulcer Index (mm)” value is recorded as 4.61 mm and the “Inhibition (%)” value is listed as 54.9%. The “Inhibition (%)” value in data set [2] turned out to be 39.2%.

In the case of `NCCCC(=O)N[C@@H](Cc1cnc[nH]1)C(=O)O` [Homocarnosine, L-homocarnosine], in data set [1], the “Ulcer Index (mm)” value is on record as 8.81 mm and the “Inhibition (%)” value is recorded as 13.9%. In addition, the death result in data set [4] is “No death”. Also, in data set [2], the “Inhibition (%)” value was 6.2%. The “Tension” value in data set [3] is listed as 218.78 g.

On to “N-acetyl-L-homocarnosine aluminum salt [(N-Acetyl-L-Homocarnosine)2 Al]”, for which, in data set [1], the “Ulcer Index (mm)” value was found to be 8.46 mm and the “Inhibition (%)” value was determined as 17.3%.

Take “(L-homocarnosine)2 zinc salt [(Homocarnosine)2 Zn]”: in data set [1], the “Ulcer Index (mm)” value is 6.34 mm and the “Inhibition (%)” value came out at 38.0%.

For “L-homocarnosine aluminum salt [Homocarnosine Al(OH)2]”, in data set [1], the “Ulcer Index (mm)” value is 7.10 mm. Besides, the “Inhibition (%)” value was determined as 30.6% in data set [1] and 11.2% in data set [2]. Besides, in data set [3], the “Tension” value stood at 220.28 g.

Turning to “L-homocarnosine aluminum salt [(Homocarnosine)2 AlOH]”, in data set [1], the “Ulcer Index (mm)” value came out at 7.76 mm and the “Inhibition (%)” value is listed as 24.2%.

Take “N-acetyl-L-homocarnosine aluminum salt [N-Acetyl-L-Homocarnosine Al(OH)2]”: in data set [1], the “Ulcer Index (mm)” value amounted to 5.40 mm and the “Inhibition (%)” value was determined as 47.2%. In addition, the “Inhibition (%)” value in data set [2] was determined as 38.7%. For the same compound, the “Tension” value in data set [3] is on record as 203.57 g.

On to “(N-acetyl-L-homocarnosine)2 zinc salt [(N-Acetyl-L-Homocarnosine)2 Zn]”, for which, in data set [1], the “Ulcer Index (mm)” value was 8.32 mm and the “Inhibition (%)” value stood at 18.7%.
